From ChEMBL document CHEMBL1681704, “Design and synthesis of novel allosteric MEK inhibitor CH4987655 as an orally available anticancer agent” (Bioorg Med Chem Lett, 2011)
Converted amounts (≈) assume the structure as drawn. The source made the active and inactive calls. The calls are words filed in the database; no cut-off is given here.

Legend:
[1] = Toxicity in human HT-29 cells xenografted BALB/c nu/nu mouse assessed as maximum tolerable dose; format: organism-based; conditions: in vivo
[2] = Half life in human liver microsomes at 1 uM; format: ADME, Microsome
[3] = Half life in mouse liver microsomes at 1 uM; format: ADME, Microsome
QG-56 = test: Cytotoxicity against human QG56 cells after 4 days; format: functional, cell-based; conditions: QG-56, 96 h
[4] = Inhibition of MEK after 30 mins
HT-29 [5] = test: Antitumor activity against human HT-29 cells xenografted in BALB/c nu/nu mouse assessed as tumor growth inhibition at maximum tolerable dose administered as po qd for 14 days; format: functional
HT-29 [6] = test: Cytotoxicity against human HT-29 cells after 4 days; format: functional, cell-based; conditions: HT-29, 96 h
[7] = Solubility in 50 mM phosphate buffer at pH 6.5 after 2 hrs; format: physicochemical
[8] = AUC (infinity) in cynomolgus monkey at 6 mg/kg, po; format: ADME, organism-based, Macaca fascicularis; design: time infinity, dose 6 mg/kg, route oral; conditions: plasma
[9] = MRT (infinity) in cynomolgus monkey at 6 mg/kg, po; format: ADME, organism-based, Macaca fascicularis; design: dose 6 mg/kg, route oral; conditions: in vivo
[10] = Cmax in cynomolgus monkey at 6 mg/kg, po; format: ADME, organism-based, Macaca fascicularis; design: dose 6 mg/kg, route oral; conditions: in vivo
HT-29 [11] = test: Inhibition of MEK in human HT-29 cells xenografted in BALB/c nu/nu mouse tumor assessed as phosphorylated ERK level at maximum tolerable dose administered as po; format: functional, cell-based; conditions: Neoplasm
[12] = Half life in cynomolgus monkey at 6 mg/kg, po; format: ADME, organism-based, Macaca fascicularis; design: dose 6 mg/kg, route oral; conditions: in vivo
[13] = Tmax in cynomolgus monkey at 6 mg/kg, po; format: ADME, organism-based, Macaca fascicularis; design: dose 6 mg/kg, route oral; conditions: in vivo
Brain = test: Inhibition of MEK in human HT-29 cells xenografted in BALB/c nu/nu mouse brain assessed as phosphorylated ERK level at maximum tolerable dose administered as po; format: functional, cell-based
Cynomolgus monkey = test: In vivo metabolic stability in cynomolgus monkey assessed as plasma concentration at 2 mg/kg, po; format: ADME, organism-based, Macaca fascicularis; design: dose 2 mg/kg, route oral
[14] = Genotoxicity in Salmonella Typhimurium by Ames test; format: toxicity; conditions: salmonella enterica subsp. enterica serovar typhimurium
[15] = Half life in cynomolgus monkey at 3 mg/kg, po; format: ADME, organism-based, Macaca fascicularis; design: dose 3 mg/kg, route oral; conditions: in vivo
[16] = target: Voltage-gated inwardly rectifying potassium channel KCNH2 (Homo sapiens, UniProt Q12809); test: Inhibition of human ERG
Chain of Voltage-gated inwardly rectifying potassium channel KCNH2 (Q12809 whole entry): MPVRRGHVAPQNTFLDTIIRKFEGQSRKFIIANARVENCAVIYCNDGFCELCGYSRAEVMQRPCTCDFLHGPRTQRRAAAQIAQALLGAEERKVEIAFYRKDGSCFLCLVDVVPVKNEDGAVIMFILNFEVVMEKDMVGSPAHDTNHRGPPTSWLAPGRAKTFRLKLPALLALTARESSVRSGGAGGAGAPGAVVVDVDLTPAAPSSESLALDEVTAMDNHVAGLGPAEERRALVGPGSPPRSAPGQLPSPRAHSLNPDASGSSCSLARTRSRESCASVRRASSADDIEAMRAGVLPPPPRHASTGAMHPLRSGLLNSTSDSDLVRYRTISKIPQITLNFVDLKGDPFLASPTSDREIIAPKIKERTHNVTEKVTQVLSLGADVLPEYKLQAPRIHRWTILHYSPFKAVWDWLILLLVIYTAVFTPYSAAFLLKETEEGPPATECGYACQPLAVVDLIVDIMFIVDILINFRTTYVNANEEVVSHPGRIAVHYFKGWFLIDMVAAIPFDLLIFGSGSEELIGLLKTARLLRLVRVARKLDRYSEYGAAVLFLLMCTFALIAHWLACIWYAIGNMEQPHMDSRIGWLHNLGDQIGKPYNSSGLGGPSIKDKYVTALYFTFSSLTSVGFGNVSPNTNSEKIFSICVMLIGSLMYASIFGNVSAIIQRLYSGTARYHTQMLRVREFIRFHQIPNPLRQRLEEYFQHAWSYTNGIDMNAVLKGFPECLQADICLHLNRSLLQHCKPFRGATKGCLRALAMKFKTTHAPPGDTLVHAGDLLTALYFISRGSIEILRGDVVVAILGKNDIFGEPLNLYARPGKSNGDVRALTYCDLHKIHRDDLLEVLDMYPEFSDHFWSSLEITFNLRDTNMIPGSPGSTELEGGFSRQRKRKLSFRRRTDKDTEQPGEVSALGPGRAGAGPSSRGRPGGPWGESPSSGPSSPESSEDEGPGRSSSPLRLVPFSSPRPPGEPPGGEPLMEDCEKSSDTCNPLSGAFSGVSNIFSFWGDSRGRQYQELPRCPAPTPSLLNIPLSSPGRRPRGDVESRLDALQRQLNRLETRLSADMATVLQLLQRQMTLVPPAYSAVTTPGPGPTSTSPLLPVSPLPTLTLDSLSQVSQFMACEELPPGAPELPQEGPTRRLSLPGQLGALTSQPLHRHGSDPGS

HT-29 [17] = test: Antitumor activity against human HT-29 cells expressing b-Raf V600E mutant xenografted in CAnN.Cg-Foxn1 nu/CrlCrlj mouse assessed as tumor regression at maximum tolerable dose administered as po qd for 14 days; format: functional
[18] = AUC (infinity) in cynomolgus monkey at 3 mg/kg, po; format: ADME, organism-based, Macaca fascicularis; design: time infinity, dose 3 mg/kg, route oral; conditions: plasma
[19] = Tmax in cynomolgus monkey at 1.5 mg/kg, po; format: ADME, organism-based, Macaca fascicularis; design: dose 1.5 mg/kg, route oral; conditions: in vivo
[20] = Antitumor activity against human H441 cells expressing Kras G12V mutant xenografted in CAnN.Cg-Foxn1 nu/CrlCrlj mouse assessed as tumor regression at maximum tolerable dose administered as po qd for 14 days; format: functional, NCI-H441
PANC-1 = test: Antitumor activity against human PANC1 cells expressing Kras […] mutant xenografted in CAnN.Cg-Foxn1 nu/CrlCrlj mouse assessed as tumor regression at maximum tolerable dose administered as po qd for 14 days; format: functional
[21] = Half life in cynomolgus monkey at 1.5 mg/kg, po; format: ADME, organism-based, Macaca fascicularis; design: dose 1.5 mg/kg, route oral; conditions: in vivo
[22] = Cmax in cynomolgus monkey at 1.5 mg/kg, po; format: ADME, organism-based, Macaca fascicularis; design: dose 1.5 mg/kg, route oral; conditions: in vivo
[23] = MRT (infinity) in cynomolgus monkey at 1.5 mg/kg, po; format: ADME, organism-based, Macaca fascicularis; design: dose 1.5 mg/kg, route oral; conditions: in vivo
[24] = Cmax in cynomolgus monkey at 3 mg/kg, po; format: ADME, organism-based, Macaca fascicularis; design: dose 3 mg/kg, route oral; conditions: in vivo
[25] = Tmax in cynomolgus monkey at 3 mg/kg, po; format: ADME, organism-based, Macaca fascicularis; design: dose 3 mg/kg, route oral; conditions: in vivo
[26] = MRT (infinity) in cynomolgus monkey at 3 mg/kg, po; format: ADME, organism-based, Macaca fascicularis; design: dose 3 mg/kg, route oral; conditions: in vivo
[27] = AUC (infinity) in cynomolgus monkey at 1.5 mg/kg, po; format: ADME, organism-based, Macaca fascicularis; design: time infinity, dose 1.5 mg/kg, route oral; conditions: plasma
Cytochrome P450 3A4 = Cytochrome P450 3A4 (Homo sapiens, UniProt P08684); test: Inhibition of CYP3A4; format: ADME
Chain of Cytochrome P450 3A4 (P08684 whole entry): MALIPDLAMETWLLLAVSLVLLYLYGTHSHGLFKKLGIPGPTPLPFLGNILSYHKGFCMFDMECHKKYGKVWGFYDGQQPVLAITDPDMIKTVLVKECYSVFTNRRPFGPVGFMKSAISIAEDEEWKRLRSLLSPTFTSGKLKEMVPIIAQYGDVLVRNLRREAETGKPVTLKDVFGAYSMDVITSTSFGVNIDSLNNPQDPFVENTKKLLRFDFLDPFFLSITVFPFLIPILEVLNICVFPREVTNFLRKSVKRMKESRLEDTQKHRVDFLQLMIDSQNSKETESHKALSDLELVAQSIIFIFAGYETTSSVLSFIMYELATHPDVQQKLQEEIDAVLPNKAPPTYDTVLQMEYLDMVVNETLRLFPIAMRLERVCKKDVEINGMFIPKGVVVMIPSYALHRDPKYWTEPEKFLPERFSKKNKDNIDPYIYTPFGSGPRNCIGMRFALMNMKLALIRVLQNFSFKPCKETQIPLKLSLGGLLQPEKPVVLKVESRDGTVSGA

## O=C(NOCCO)c1cc(COCCO)c(F)c(F)c1Nc1ccc(I)cc1F
[1]
  MTD: 50 mg/kg
[2]
  half-life at 1 µM: > 6 h
[3]
  half-life at 1 µM: > 6 h

## O=C(NOCCO)c1cc(/C=N/OCCO)c(F)c(F)c1Nc1ccc(I)cc1F
QG-56
  IC50: 160 nM
[4]
  IC50: 100 nM
[1]
  MTD: 100 mg/kg
HT-29 [5]
  TGI: 82%
[2]
  half-life at 1 µM: 1.08 h
HT-29 [6]
  IC50: 80 nM
[3]
  half-life at 1 µM: 3.95 h

## O=C(NOCCO)c1cc(CN2OCCOC2=O)c(F)c(F)c1Nc1ccc(I)cc1F
QG-56
  IC50: 56 nM
[4]
  IC50: 42 nM
[2]
  half-life at 1 µM: 0.633 h
[7]
  solubility at 2 h: 57 µM (≈ 32.3 µg/mL)
HT-29 [6]
  IC50: 17 nM
[3]
  half-life at 1 µM: 2.1 h

## O=C(NOCCO)c1cc(CN2CCCC2=O)c(F)c(F)c1Nc1ccc(I)cc1F
QG-56
  IC50: 57 nM
[4]
  IC50: 85 nM
[2]
  half-life at 1 µM: 3.08 h
[7]
  solubility at 2 h: 156 µM (≈ 85.7 µg/mL)
HT-29 [6]
  IC50: 20 nM
[3]
  half-life at 1 µM: 2.07 h

## CC(C)(O)CO/N=C/c1cc(C(=O)NOCCO)c(Nc2ccc(I)cc2F)c(F)c1F
QG-56
  IC50: 128 nM
[4]
  IC50: 37 nM
[1]
  MTD: 100 mg/kg
HT-29 [5]
  TGI: 85%
[2]
  half-life at 1 µM: > 6 h
HT-29 [6]
  IC50: 40 nM
[3]
  half-life at 1 µM: > 6 h

## O=C(NOCCO)c1cc(/C=N\OCCO)c(F)c(F)c1Nc1ccc(I)cc1F
QG-56
  IC50: 6 nM
[4]
  IC50: 15 nM
[1]
  MTD: 12.5 mg/kg
HT-29 [5]
  TGI: 95%
[2]
  half-life at 1 µM: > 6 h
HT-29 [6]
  IC50: 2.4 nM
[3]
  half-life at 1 µM: > 6 h

## O=C(NOC[C@H](O)CO)c1ccc(F)c(F)c1Nc1ccc(I)cc1F [MIRDAMETINIB]
[8]
  AUC(0-inf): 7900 ng·h/mL
[9]
  MRT inf: 7.3 h
[10]
  Cmax: 1700 ng/mL
HT-29 [11]
  inhibition: Active
[12]
  half-life: 5.5 h
[13]
  Tmax: 1.1 h
Brain
  inhibition: Active
Cynomolgus monkey
  Stability: Stable

## O=C(NOCCO)c1cc(CNOCCO)c(F)c(F)c1Nc1ccc(I)cc1F
[1]
  MTD: 100 mg/kg
[2]
  half-life at 1 µM: > 6 h
[3]
  half-life at 1 µM: 2.13 h

## O=C(NOCCO)c1cc(CN2OCCCC2=O)c(F)c(F)c1Nc1ccc(I)cc1F [RO-4987655]
[8]
  AUC(0-inf): 10400 ng·h/mL
[14]
  Activity: Non-toxic
[9]
  MRT inf: 7.3 h
[15]
  half-life: 6 h
[16]
  inhibition (INH): Not Active
HT-29 [17]
  Activity: 70%
[18]
  AUC(0-inf): 7400 ng·h/mL
[10]
  Cmax: 2100 ng/mL
[19]
  Tmax: 1.3 h
[20]
  Activity: 70%
HT-29 [11]
  inhibition: Active
[12]
  half-life: 5 h
[13]
  Tmax: 1.5 h
PANC-1
  Activity: 70%
[21]
  half-life: 6.6 h
[22]
  Cmax: 400 ng/mL
[23]
  MRT inf: 8.4 h
[24]
  Cmax: 1000 ng/mL
[25]
  Tmax: 2.5 h
[2]
  half-life at 1 µM: 1.93 h
[26]
  MRT inf: 8.8 h
[27]
  AUC(0-inf): 2200 ng·h/mL
Brain
  inhibition: inactive
Cytochrome P450 3A4
  IC50: > 100000 nM
[3]
  half-life at 1 µM: > 6 h

## CC(=O)NCCO/N=C/c1cc(C(=O)NOCCO)c(Nc2ccc(I)cc2F)c(F)c1F
QG-56
  IC50: 199 nM
[4]
  IC50: 48 nM
[1]
  MTD: > 200 mg/kg
HT-29 [5]
  TGI: 99%
[2]
  half-life at 1 µM: > 6 h
HT-29 [6]
  IC50: 86 nM
[3]
  half-life at 1 µM: > 6 h

## C#Cc1ccc(Nc2c(C(=O)NOCCO)cc(/C=N/OCCO)c(F)c2F)c(F)c1
QG-56
  IC50: 160 nM
[4]
  IC50: 235 nM
[1]
  MTD: > 200 mg/kg
HT-29 [5]
  TGI: 82%
[2]
  half-life at 1 µM: 1.33 h
HT-29 [6]
  IC50: 150 nM
[3]
  half-life at 1 µM: 2.25 h

## O=C(NOCCO)c1cc(CN2CCOC2=O)c(F)c(F)c1Nc1ccc(I)cc1F
QG-56
  IC50: 3060 nM
[4]
  IC50: > 250 nM
[2]
  half-life at 1 µM: > 6 h
[7]
  solubility at 2 h: 284 µM (≈ 157 µg/mL)
HT-29 [6]
  IC50: 560 nM
[3]
  half-life at 1 µM: > 6 h

## O=C(NOCCO)c1cc(CN2OCCC2=O)c(F)c(F)c1Nc1ccc(I)cc1F
[1]
  MTD: 12.5 mg/kg
[2]
  half-life at 1 µM: > 6 h
[3]
  half-life at 1 µM: > 6 h

## CS(=O)(=O)CCO/N=C/c1cc(C(=O)NOCCO)c(Nc2ccc(I)cc2F)c(F)c1F
QG-56
  IC50: 24 nM
[4]
  IC50: 67 nM
[1]
  MTD: > 200 mg/kg
HT-29 [5]
  TGI: 98%
[2]
  half-life at 1 µM: 1.5 h
[7]
  solubility at 2 h: 1 µM (≈ 0.601 µg/mL)
HT-29 [6]
  IC50: 27 nM
[3]
  half-life at 1 µM: > 6 h

## CON(Cc1cc(C(=O)NOCCO)c(Nc2ccc(I)cc2F)c(F)c1F)C(C)=O
[1]
  MTD: 25 mg/kg
[2]
  half-life at 1 µM: 1.07 h
[7]
  solubility at 2 h: 116 µM (≈ 64.2 µg/mL)
[3]
  half-life at 1 µM: 0.6 h
